# Measurements as given in article PMC10771525 (Communications Biology, 2024).
# Columns and labels:
# EDG7 = test: GPCR panel (control), Arrestin, CHO-K1; type: cell-based, human; settings: reference agonist
# EDG2 = test: GPCR panel (control), Arrestin, CHO-K1; type: cell-based, human; settings: reference agonist
# EDG4 = test: GPCR panel (control), Arrestin, CHO-K1; type: cell-based, human; settings: reference agonist
# GPR92 = test: GPCR panel (control), Arrestin, CHO-K1; type: cell-based, human; settings: reference agonist
# ADORA3 = test: GPCR panel (control), Arrestin, CHO-K1; type: cell-based, human; settings: reference agonist
# HRH1 = test: GPCR panel (control), Arrestin, CHO-K1; type: cell-based, human; settings: reference agonist
# GPR119 = test: GPCR panel (control), Arrestin, U2OS; type: cell-based, human; settings: reference agonist
# CRTH2 = CRTH2 (Homo sapiens, UniProt Q9Y5Y4); test: GPCR panel (control), Arrestin, U2OS; type: cell-based; settings: reference agonist
# HRH3 = test: GPCR panel (control), Arrestin, CHO-K1; type: cell-based, human; settings: reference agonist
# EDG6 = test: GPCR panel (control), Arrestin, CHO-K1; type: cell-based, human; settings: reference agonist
# EDG8 = test: GPCR panel (control), Arrestin, CHO-K1; type: cell-based, human; settings: reference agonist
# EDG5 = test: GPCR panel (control), Arrestin, CHO-K1; type: cell-based, human; settings: reference agonist
# EDG1 = test: GPCR panel (control), Arrestin, CHO-K1; type: cell-based, human; settings: reference agonist
# EDG3 = test: GPCR panel (control), Arrestin, CHO-K1; type: cell-based, human; settings: reference agonist
# ADRA2A = settings: reference agonist, CHO-K1, Arrestin
# ADRA2C = settings: reference agonist, CHO-K1, Arrestin
# CCR2 = test: GPCR panel (control), Arrestin, CHO-K1; type: cell-based, human; settings: reference agonist
# CCR5 = test: GPCR panel (control), Arrestin, CHO-K1; type: cell-based, human; settings: reference agonist
# CCR3 = test: GPCR panel (control), Arrestin, CHO-K1; type: cell-based, human; settings: reference agonist
# CCR7 = test: GPCR panel (control), Arrestin, CHO-K1; type: cell-based, human; settings: reference agonist
# CCR6 = test: GPCR panel (control), Arrestin, CHO-K1; type: cell-based, human; settings: reference agonist
# CXCR3 = test: GPCR panel (control), Arrestin, CHO-K1; type: cell-based, human; settings: reference agonist
# CXCR5 = test: GPCR panel (control), Arrestin, CHO-K1; type: cell-based, human; settings: reference agonist
# GPR1 = test: GPCR panel (control), Arrestin, CHO-K1; type: cell-based, human; settings: reference agonist
# CMKLR1 = test: GPCR panel (control), Arrestin, CHO-K1; type: cell-based, human; settings: reference agonist
# CXCR2 = test: GPCR panel (control), Arrestin, HEK-293; type: cell-based, human; settings: reference agonist, CXCR2, HEK-293, Arrestin
# CXCR1 = test: GPCR panel (control), Arrestin, U2OS; type: cell-based, human; settings: reference agonist
# [1] = target: MRGPRX2 in the calcium mobilization assays of the small CXCL14 fragments and mutants (human) (UniProt Q96LB1)
# [2] = target: MRGPRX2 fused to ProLink (PK), in CHO β-arrestin cells (human) (UniProt Q96LB1)
# [3] = target: MRGPRX2 in the calcium mobilization assays of the small CXCL14 fragments and mutants (human) (UniProt Q96LB1); remark: listed apart in the source
# [4] = target: MRGPRX2 fused to ProLink (PK), in CHO β-arrestin cells (human) (UniProt Q96LB1); remark: listed apart in the source
# XCR1 = test: GPCR panel screening, cAMP assay, XCR1; type: cell-based, human; settings: reference agonist, XCR1, CHO
# Experimental: The chemokine receptor XCR1, coupled to Gαi, was tested in cAMP assays.
# Screening the GPCRs panels was performed by DiscoverX (Eurofins) using β-arrestin recruitment assays unless otherwise indicated (for details, see Supplementary Data 2). […]
# chemokine receptors (CCR1, CCR2, CCR3, CCR4, CCR5, CCR6, CCR7, CCR8, CCR9, CCR10, CXCR1, CXCR2, CXCR3, CXCR4, CXCR5, CXCR6, and CX3CR1) versus their corresponding agonist at their determined EC80 (see Supplementary Data 2). CXCL14 was preincubated for 30 min, then the standard agonist for the investigated receptor was added, followed by another incubation for 90 min without washing step in between. The chemokine receptor XCR1, coupled to Gαi, was tested in cAMP assays. The readout was relative luminescence units (RLU). The percentage of inhibition was calculated using the following formula: % Inhibition = 100% x (1 - (mean RLU of CXCL14- mean RLU of vehicle control) / (mean RLU of EC80 control - mean RLU of vehicle control)). For further details see Supplementary Data 2.
# (1 picture or pasted object on this page, not shown here)
# C5LR2 = test: GPCR panel (control), Arrestin, CHO-K1; type: cell-based, human; settings: reference agonist
# C5AR1 = test: GPCR panel (control), Arrestin, CHO-K1; type: cell-based, human; settings: reference agonist
# CCR10 = test: GPCR panel (control), Arrestin, U2OS; type: cell-based, human; settings: reference agonist
# CCR4 = test: GPCR panel (control), Arrestin, CHO-K1; type: cell-based, human; settings: reference agonist
# CCR8 = test: GPCR panel (control), Arrestin, CHO-K1; type: cell-based, human; settings: reference agonist
# CX3CR1 = test: GPCR panel (control), Arrestin, CHO-K1; type: cell-based, human; settings: reference agonist
# CXCR6 = test: GPCR panel (control), Arrestin, HEK-293; type: cell-based, human; settings: reference agonist, CXCR6, HEK-293, Arrestin
# Chain of CRTH2 (Q9Y5Y4 whole entry): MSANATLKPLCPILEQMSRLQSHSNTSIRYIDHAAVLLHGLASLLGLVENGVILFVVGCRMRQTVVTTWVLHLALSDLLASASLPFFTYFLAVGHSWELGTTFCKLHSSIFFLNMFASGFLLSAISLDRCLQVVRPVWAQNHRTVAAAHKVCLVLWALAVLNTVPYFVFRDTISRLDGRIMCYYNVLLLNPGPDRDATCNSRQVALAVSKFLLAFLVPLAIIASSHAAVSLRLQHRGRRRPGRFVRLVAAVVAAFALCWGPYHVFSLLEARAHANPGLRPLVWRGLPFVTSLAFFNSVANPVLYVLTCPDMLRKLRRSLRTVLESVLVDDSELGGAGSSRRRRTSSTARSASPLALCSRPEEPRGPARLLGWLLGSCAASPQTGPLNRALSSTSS
# Chain of MRGPRX2 fused to ProLink (PK), in CHO β-arrestin cells (human) (Q96LB1 whole entry, the tested form may be a part): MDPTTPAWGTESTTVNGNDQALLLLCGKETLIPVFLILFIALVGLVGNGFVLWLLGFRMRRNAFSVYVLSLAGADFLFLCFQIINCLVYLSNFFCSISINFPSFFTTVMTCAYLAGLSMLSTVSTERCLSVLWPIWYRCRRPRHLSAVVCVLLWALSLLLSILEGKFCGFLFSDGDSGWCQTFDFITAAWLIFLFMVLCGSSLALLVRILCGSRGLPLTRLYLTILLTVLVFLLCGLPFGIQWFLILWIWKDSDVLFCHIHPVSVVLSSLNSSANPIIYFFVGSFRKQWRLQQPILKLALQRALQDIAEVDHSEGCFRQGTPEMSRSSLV
# Chain of MRGPRX2 in the calcium mobilization assays of the small CXCL14 fragments and mutants (human) (Q96LB1 whole entry, change not shown, the tested form may be a part): as the sequence (Q96LB1 whole entry, the tested form may be a part) above
molecule,measurement,setting,value
CCCCCCCC/C=C\CCCCCCCC(=O)OCC(O)COP(=O)(O)O (centres unmarked) [1-Oleoyl-LPA],EC50,EDG7,[…]
same,EC50,EDG2,280 nM
same,EC80,EDG2,23000 nM
CNCCc1cnc(CCC(c2ccccc2)c2ccccc2)[nH]1 [Methylhistaprodifen],EC50,HRH1,48 nM
same,EC80,HRH1,11000 nM
CCCCCCCC/C=C\CCCCCCCC(=O)NCCO [OEA],EC50,GPR119,580 nM
same,EC80,GPR119,19000 nM
CCCCC[C@H](O)/C=C/[C@H]1C(=O)C[C@H](O)[C@@H]1C/C=C\CCCC(=O)O [Prostaglandin D2],EC50,CRTH2,21 nM
same,EC80,CRTH2,1200 nM
CCCCCCCCCCCCC/C=C/[C@@H](O)[C@@H](N)COP(=O)(O)O [Sphingosine-1-phosphate],EC50,EDG6,110 nM
same,EC80,EDG6,4800 nM
same,EC50,EDG8,26 nM
same,EC80,EDG8,2400 nM
same,EC50,EDG5,260 nM
same,EC80,EDG5,11000 nM
same,EC50,EDG1,53 nM
same,EC80,EDG1,1300 nM
same,EC50,EDG3,190 nM
same,EC80,EDG3,5200 nM
CCL2,EC50,CCR2,3.1 nM
same,EC80,CCR2,200 nM
CCL3,EC50,CCR5,7.2 nM
same,EC80,CCR5,310 nM
CCL13,EC50,CCR3,8.8 nM
same,EC80,CCR3,210 nM
CCL19,EC50,CCR7,9.5 nM
same,EC80,CCR7,230 nM
CCL20,EC50,CCR6,6.2 nM
same,EC80,CCR6,710 nM
CXCL11,EC50,CXCR3,9.3 nM
same,EC80,CXCR3,280 nM
CXCL13,EC50,CXCR5,24 nM
same,EC80,CXCR5,1200 nM
Chemerin,EC50,GPR1,7.3 nM
same,EC80,GPR1,170 nM
same,EC50,CMKLR1,1 nM
same,EC80,CMKLR1,93 nM
Interleukin-8,EC50,CXCR2,1.1 nM
same,EC80,CXCR2,230 nM
same,EC50,CXCR1,1.7 nM
same,EC80,CXCR1,300 nM
STKRFIKWY [CXCL14(57-65)],"EC50, calcium mobilization at MRGPRX2",[1],301 nM
same,"EC50, β-arrestin recruitment at MRGPRX2",[2],1960 nM
same,"Emax, calcium mobilization at MRGPRX2, normalized to the maximal effect of CXCL14",[3],170%
same,"Emax, β-arrestin recruitment at MRGPRX2, normalized to the maximal effect of CXCL14",[4],195%
"XCL1/Lymphotactin (protein, UniProt P47992 22-114, looked up) Lymphotactin: VGSEVSDKRTCVSLTTQRLPVSRIKTYTITEGSLRAVIFITKRGLKVCADPQATWVRDVVRSMDRKSNTRNNMIQTKPTGTQQSTNTAVTLTG",EC50,XCR1,8.8 nM
same,EC80,XCR1,480 nM
"Complement C5a (protein, UniProt P01031 678-751, looked up, C5a anaphylatoxin) C5a anaphylatoxin: TLQKKIEEIAAKYKHSVVKKCCYDGACVNNDETCEQRAARISLGPRCIKAFTECCVVASQLRANISHKDMQLGR",EC50,C5LR2,2.2 nM
same,EC80,C5LR2,43 nM
same,EC50,C5AR1,1.3 nM
same,EC80,C5AR1,71 nM
"CCL27 (protein, UniProt Q9Y4X3 25-112, looked up) C-C motif chemokine 27: FLLPPSTACCTQLYRKPLSDKLLRKVIQVELQEADGDCHLQAFVLHLAQRSICIHPQNPSLSQWFEHQERKLHGTLPKLNFGMLRKMG",EC50,CCR10,65 nM
same,EC80,CCR10,1700 nM
"CCL22 (protein, UniProt O00626 25-93, looked up) C-C motif chemokine 22: GPYGANMEDSVCCRDYVRYRLPLRVVKHFYWTSDSCPRPGVVLLTFRDKEICADPRVPWVKMILNKLSQ",EC50,CCR4,2.4 nM
same,EC80,CCR4,120 nM
"CCL1 (protein, UniProt P22362 24-96, looked up) C-C motif chemokine 1: KSMQVPFSRCCFSFAEQEIPLRAILCYRNTSSICSNEGLIFKLKRGKEACALDTVGWVQRHRKMLRHCPSKRK",EC50,CCR8,40 nM
same,EC80,CCR8,1900 nM
"Fractalkine (protein, UniProt P78423 25-397, looked up) Fractalkine: QHHGVTKCNITCSKMTSKIPVALLIHYQQNQASCGKRAIILETRQHRLFCADPKEQWVKDAMQHLDRQAAALTRNGGTFEKQIGEVKPRTTPAAGGMDESVVLEPEATGESSSLEPTPSSQEAQRALGTSPELPTGVTGSSGTRLPPTPKAQDGGPVGTELFRVPPVSTAATWQSSAPHQPGPSLWAEAKTSEAPSTQDPSTQASTASSPAPEENAPSEGQRVWGQGQSPRPENSLEREEMGPVPAHTDAFQDWGPGSMAHVSVVPVSSEGTPSREPVASGSWTPKAEEPIHATMDPQRLGVLITPVPDAQAATRRQAVGLLAFLGLLFCLGVAMFTYQSLQGCPRKMAGEMAEGLRYIPRSCGSNSYVLVPV",EC50,CX3CR1,0.13 nM
same,EC80,CX3CR1,15 nM
"CXCL16 (protein, UniProt Q9H2A7 30-254, looked up) C-X-C motif chemokine 16: NEGSVTGSCYCGKRISSDSPPSVQFMNRLRKHLRAYHRCLYYTRFQLLSWSVCGGNKDPWVQELMSCLDLKECGHAYSGIVAHQKHLLPTSPPISQASEGASSDIHTPAQMLLSTLQSTQRPTLPVGSLSSDKELTRPNETTIHTAGHSLAAGPEAGENQKQPEKNAGPTARTSATVPVLCLLAIIFILTAALSYVLCKRRRGQSPQSSPDLPVHYIPVAPDSNT",EC50,CXCR6,1.5 nM
same,EC80,CXCR6,130 nM
